Test results taken from BindingDB's records for doi:10.1021/jm501395b (University of Strasburg, 2015).

Experiments:
[1] = molecular target: T1, Oxytocin receptor (Homo sapiens, UniProt P30559); experiment: Binding affinity to SNAP-tagged oxytocin receptor (unknown origin) expressed in HEK293 cells assessed as dissociation constant after 5 to 120 mins by TR-FRET assay
T1 sequence (P30559 whole entry): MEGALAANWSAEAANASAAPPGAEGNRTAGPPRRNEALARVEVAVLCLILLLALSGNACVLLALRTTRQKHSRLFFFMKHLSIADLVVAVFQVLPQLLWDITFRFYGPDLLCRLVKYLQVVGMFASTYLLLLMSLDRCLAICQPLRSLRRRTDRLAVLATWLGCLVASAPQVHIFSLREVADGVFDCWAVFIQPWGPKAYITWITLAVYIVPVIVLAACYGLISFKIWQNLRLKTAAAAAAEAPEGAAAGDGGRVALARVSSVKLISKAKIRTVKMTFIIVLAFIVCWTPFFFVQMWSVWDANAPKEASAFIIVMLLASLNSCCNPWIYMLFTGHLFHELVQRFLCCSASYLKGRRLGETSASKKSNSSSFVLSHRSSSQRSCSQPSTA

[2] = molecular target: T1, Oxytocin receptor; experiment: Binding affinity to SNAP-tagged oxytocin receptor (unknown origin) expressed in HEK293 cells assessed as association constant after 5 to 120 mins by TR-FRET assay; conditions: read-out: kon (M-1-s-1)

| Structure (SMILES) | koff [1] [s⁻¹] | kon [2] [M⁻¹ s⁻¹] |
| --- | --- | --- |
| COc1ccc(-n2c(COCCOCCOCCOCCNC(=O)CCCCCNC(=O)c3ccc(-c4c5ccc(=O)cc-5oc5cc(O)ccc45)c(C(=O)O)c3)nnc2N2CC(Oc3ccc(F)cc3Cl)C2)cn1 | 0.000315 | 59500 |
| CCN1\C(=C/C=C/C=C/C2=[N+](CC)c3cc(S(=O)(=O)[O-])ccc3C2(C)C)C(C)(CCCC(=O)NCCOCCOCCOCCOCc2nnc(N3CC(Oc4ccc(F)cc4Cl)C3)n2-c2ccc(OC)nc2)c2cc(S(=O)(=O)O)ccc21 (centres undefined) | 0.000182 | 67200 |
